# According to patent publication US20090093544A1, “INSECTICIDAL COMPOSITIONS HAVING IMPROVED EFFECT” (Bayer CropScience AG, priority 2005, published 2009):
# Test system: Spodoptera frugiperda
# Assay: Spodoptera frugiperda test (SPODFR), spray treatment of maize plants
# Format: in vivo
# Conditions: 168 h, read-out: Mortality/% 7 d
# Protocol: Spodoptera frugiperda—Test (SPODFR)
# For the preparation of an expedient active ingredient preparation, 1 part by weight of active ingredient is mixed with the stated amounts of solvent and emulsifier, and the concentrate is diluted with emulsifier-containing water to the desired concentration. If it is necessary to add ammonium salts or ammonium salts and penetration promoter, the corresponding amount is pipetted into each of the ready preparation solution after the dilution.
# Maize plants (Zea mais) are treated with the active ingredient preparation in the desired concentration by spraying and are populated with caterpillars of the fall armyworm (Spodoptera frugiperda) as long as the leaves are still moist.
# After the desired time, the kill in % is determined. 100% means that all caterpillars were killed; 0% means that no caterpillars were killed.
smiles,measurement,value
Cc1cc(C(F)(C(F)(F)F)C(F)(F)F)ccc1NC(=O)c1cccc(Cl)c1C(=O)N[C@@H](C)CS(C)(=O)=O [(Ib)],mortality at 0.192 g/ha,70%
